# Target: T1, human PKR1 receptors (Homo sapiens, UniProt Q8TCW9)
# T1 construct: expressed in transfected cells; host or cells: RBL2H3 cells (rat basophilic leukaemia line) expressing human PKR1
# Assay: PKR1 antagonist assay: block of PK1-mediated intracellular calcium release (FLIPR Tetra, Calcium 5 dye)
# Assay type: cell-based
# Settings: RBL2H3 cells expressing human PKR1; 10 min pre-incubation, stimulation with PK1 at EC80; calcium fluorescence
# How it was run: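 RBL2H3 cells expressing human PKR1, loaded 1 h at 37 °C with Calcium 5 dye plus 1 mM probenecid in HBSS/25 mM HEPES/0.1% BSA, pH 7.4. Compounds (0.32 nM–10 µM final) preincubated 10 min, then PK1 added at EC80; fluorescence read at 525 nm (excitation 485 nm).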
# T1 sequence (Q8TCW9 whole entry): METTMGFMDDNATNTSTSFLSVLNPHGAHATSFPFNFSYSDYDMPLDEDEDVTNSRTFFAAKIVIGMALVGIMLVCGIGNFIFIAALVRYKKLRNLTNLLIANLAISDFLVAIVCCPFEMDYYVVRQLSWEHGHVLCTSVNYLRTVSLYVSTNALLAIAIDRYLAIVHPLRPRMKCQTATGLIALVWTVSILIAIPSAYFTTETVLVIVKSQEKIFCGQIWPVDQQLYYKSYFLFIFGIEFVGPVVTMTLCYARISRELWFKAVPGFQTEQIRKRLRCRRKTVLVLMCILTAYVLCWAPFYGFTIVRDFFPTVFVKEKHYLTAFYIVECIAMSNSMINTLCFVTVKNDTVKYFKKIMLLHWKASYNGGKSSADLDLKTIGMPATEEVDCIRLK
row,SMILES,IC50
1,"Cc1n[nH]c(C)c1S(=O)(=O)N1CCC(Oc2ccc(Cl)cc2)CC1 [Example 8, 4-(4-Chlorophenoxy)-1-[(3,5-dimethyl-1H-pyrazol-4-yl)sulfonyl]piperidine]",1450 nM
2,"Cc1n[nH]c(C)c1S(=O)(=O)N1CCC(C(CO)c2ccc(Cl)cc2)CC1 (stereo not drawn) [Example 100, 2-(4-Chlorophenyl)-2-(1-((3,5-dimethyl-1H-pyrazol-4-yl)sulfonyl)piperidin-4-yl)ethanol]",9420 nM
3,"Cc1n[nH]c(C)c1S(=O)(=O)N1CCC(Cc2ccc(Cl)cc2)CC1 [Example 67, 4-(4-Chlorobenzyl)-1-((3,5-dimethyl-1H-pyrazol-4-yl)sulfonyl)piperidine]",520 nM
4,"Cc1nn(C)c(C)c1S(=O)(=O)N1CCC(O)(Cc2ccc(Cl)cc2)CC1 [Example 57, 4-(4-Chlorobenzyl)-1-((1,3,5-trimethyl-1H-pyrazol-4-yl)sulfonyl)piperidin-4-ol]",1600 nM
5,"COc1cc(Cl)ccc1CC1(F)CCN(S(=O)(=O)c2c(C)n[nH]c2C)CC1 [Example 90, 4-(4-Chloro-2-methoxybenzyl)-1-((3,5-dimethyl-1H-pyrazol-4-yl)sulfonyl)-4-fluoropiperidine]",170 nM
6,"COc1cc(Cl)ccc1CC1(O)CCN(S(=O)(=O)c2c(C)nn(C)c2C)CC1 [Example 88, 4-(4-Chloro-2-methoxybenzyl)-1-((1,3,5-trimethyl-1H-pyrazol-4-yl)sulfonyl)piperidin-4-ol]",200 nM
7,"Cc1nn(C)c(C)c1S(=O)(=O)N1CCC(Oc2ccc3ccccc3c2)CC1 [Example 23, 4-(Naphthalen-2-yloxy)-1-[(1,3,5-trimethyl-1H-pyrazol-4-yl)sulfonyl]piperidine]",220 nM
8,"Cc1n[nH]c(C)c1S(=O)(=O)N1CCC(Oc2ccc(OC(F)(F)F)cc2)CC1 [Example 32, 1-[(3,5-Dimethyl-1H-pyrazol-4-yl)sulfonyl]-4-[4-(trifluoromethoxy)phenoxy]piperidine]",3400 nM
9,"Cc1nn(C)c(C)c1S(=O)(=O)N1CCC(Oc2ccccc2)CC1 [Example 19, 4-Phenoxy-1-[(1,3,5-trimethyl-1H-pyrazol-4-yl)sulfonyl]piperidine]",5600 nM
10,"Cc1nn(C)c(C)c1S(=O)(=O)N1CCC(Nc2ccc(Cl)cc2)CC1 [Example 51, N-(4-Chlorophenyl)-1-((1,3,5-trimethyl-1H-pyrazol-4-yl)sulfonyl)piperidin-4-amine]",1500 nM
11,"COc1cccc(OC2CCN(S(=O)(=O)c3c(C)nn(C)c3C)CC2)c1 [Example 17, 4-(3-Methoxyphenoxy)-1-[(1,3,5-trimethyl-1H-pyrazol-4-yl)sulfonyl]piperidine]",3600 nM
12,"Cc1n[nH]c(C)c1S(=O)(=O)N1CCC(Oc2ccc(Cl)c(Cl)c2)CC1 [Example 2, 4-(3,4-Dichlorophenoxy)-1-[(3,5-dimethyl-1H-pyrazol-4-yl)sulfonyl]piperidine]",1000 nM
13,"COc1cc(Cl)cnc1OC1CCN(S(=O)(=O)c2c(C)nn(C)c2C)CC1 [Example 84, 5-Chloro-3-methoxy-2-((1-((1,3,5-trimethyl-1H-pyrazol-4-yl)sulfonyl)piperidin-4-yl)oxy)pyridine]",720 nM
14,"Cc1nn(C)cc1S(=O)(=O)N1CCC(Oc2ccc(Cl)cc2Cl)CC1 [Example 27, 4-(2,4-Dichlorophenoxy)-1-[(1,3-dimethyl-1H-pyrazol-4-yl)sulfonyl]piperidine]",5600 nM
15,"Cc1ccc(OC2CCN(S(=O)(=O)c3c(C)nn(C)c3C)CC2)cc1 [Example 4, 4-(4-Methylphenoxy)-1-[(1,3,5-trimethyl-1H-pyrazol-4-yl)sulfonyl]piperidine]",820 nM
16,"COc1ccc(OC2CCN(S(=O)(=O)c3c(C)n[nH]c3C)CC2)cc1F [Example 41, 1-(3,5-Dimethyl-1H-pyrazole-4-sulfonyl)-4-(3-fluoro-4-methoxyphenoxy)piperidine]",5900 nM
17,"COc1cc(Cl)ccc1CC1(O)CCN(S(=O)(=O)c2c(C)n[nH]c2C)CC1 [Example 89, 4-(4-Chloro-2-methoxybenzyl)-1-((3,5-dimethyl-1H-pyrazol-4-yl)sulfonyl)piperidin-4-ol]",410 nM
18,"Cc1n[nH]c(C)c1S(=O)(=O)N1CCC(Cc2ccc(Cl)c(F)c2)CC1 [Example 71, 4-(4-Chloro-3-fluorobenzyl)-1-((3,5-dimethyl-1H-pyrazol-4-yl)sulfonyl)piperidine]",780 nM
19,"Cc1n[nH]c(C)c1S(=O)(=O)N1CCC(C(F)c2ccc(Cl)cc2)CC1 (single isomer, unassigned) [Example 107, 4-((4-Chlorophenyl)fluoromethyl)-1-((3,5-dimethyl-1H-pyrazol-4-yl)sulfonyl)piperidine]",310 nM
20,"Cc1nn(C)c(C)c1S(=O)(=O)N1CCC(Cc2ccc(Cl)cc2)CC1 [Example 55, 4-(4-Chlorobenzyl)-1-((1,3,5-trimethyl-1H-pyrazol-4-yl)sulfonyl)piperidine]",520 nM
21,"Cc1nn(C)c(Cl)c1S(=O)(=O)N1CCC(Oc2ccc(Cl)cc2Cl)CC1 [Example 25, 1-[(5-Chloro-1,3-dimethyl-1H-pyrazol-4-yl)sulfonyl]-4-(2,4-dichlorophenoxy)piperidine]",1300 nM
22,"COc1cc(Cl)ccc1CC1CCN(S(=O)(=O)c2c(C)nn(C)c2C)CC1 [Example 79, 4-(4-Chloro-2-methoxybenzyl)-1-((1,3,5-trimethyl-1H-pyrazol-4-yl)sulfonyl)piperidine]",50 nM
23,"Cc1nn(C)c(C)c1S(=O)(=O)N1CCC(C(=O)c2ccc(Cl)c(Cl)c2)CC1 [Example 50, (3,4-Dichlorophenyl)(1-((1,3,5-trimethyl-1H-pyrazol-4-yl)sulfonyl)piperidin-4-yl)methanone]",2100 nM
24,"Cc1nn(C)c(C)c1S(=O)(=O)N1CCC(Oc2cccc(Cl)c2)CC1 [Example 6, 4-(3-Chlorophenoxy)-1-[(1,3,5-trimethyl-1H-pyrazol-4-yl)sulfonyl]piperidine]",2200 nM
